The structures appear in SMILES notation. ≈ marks a conversion by molar mass, not a printed value. Bounds are passed on as bounds.

Holding throughout (format): functional
For assay [1], the system named is Mycobacterium tuberculosis. Briefly: Antitubercular activity against isoniazid, streptomycin, ethionamide, ethambutol and rifampicin resistant Mycobacterium tuberculosis isolate 7 assessed as growth inhibition.
Assay [2] concerns Mycobacterium tuberculosis. Briefly: Antitubercular activity against isoniazid and rifampicin resistant Mycobacterium tuberculosis isolate 4 assessed as growth inhibition.
Assay [3] relates to Mycobacterium tuberculosis. As to the kind of experiment: Antitubercular activity against isoniazid and ethionamide resistant Mycobacterium tuberculosis isolate 5 assessed as growth inhibition.
Assay [4] has as its system Mycobacterium tuberculosis. As to the kind of experiment: Antitubercular activity against isoniazid, streptomycin and rifampicin resistant Mycobacterium tuberculosis isolate 3 assessed as growth inhibition.
The test system of assay [5] is Mycobacterium tuberculosis. As to the kind of experiment: Antitubercular activity against isoniazid and ethionamide resistant Mycobacterium tuberculosis isolate 2 assessed as growth inhibition.
For assay [6], the system named is Mycobacterium tuberculosis. Briefly: Antitubercular activity against isoniazid, streptomycin, ethionamide, ethambutol, rifampicin and ofloxacin resistant Mycobacterium tuberculosis isolate 8 assessed as growth inhibition.
Assay [7] relates to Mycobacterium tuberculosis. Briefly: Antitubercular activity against isoniazid, streptomycin and ethionamide resistant Mycobacterium tuberculosis isolate 6 assessed as growth inhibition.
Assay [8] concerns Mycobacterium tuberculosis. As to the kind of experiment: Antitubercular activity against isoniazid, streptomycin, ethionamide and ethambutol resistant Mycobacterium tuberculosis isolate 1 assessed as growth inhibition.

In the case of `CCOC(=O)c1nc(C2CCCCC2)sc1-c1ccc(C#N)cc1`, the MIC (usually the lowest concentration found to suppress growth) was 16 µg/mL (≈ 47 µM) in assay [1]; 4 µg/mL (≈ 11.7 µM) in assay [2]; 8 µg/mL (≈ 23.5 µM) in assay [3]; 16 µg/mL (≈ 47 µM) in assay [4]; 8 µg/mL (≈ 23.5 µM) in assay [5]; more than 32 µg/mL in assay [6]. In addition, the MIC in assay [7] and in assay [8] was 8 µg/mL (≈ 23.5 µM) each time.

These data come from ChEMBL document CHEMBL4364263, “Synthesis and biological evaluation of 2,4,5-trisubstituted thiazoles as antituberculosis agents effective against drug-resistant tuberculosis” (Eur J Med Chem, 2019).
